Values joined by “and” are separate entries in the source; they are usually repeats but may differ in a detail not shown here. Equal entries are not always repeated. Inconclusive results and toxic doses are left out. Rule as the data show it: active = T/C of 150% or more; inactive = T/C below 125%.
Tested on: L1210 leukemia ip in BDF1 mice, survival T/C
Assay: NCI In Vivo Anticancer Drug Screen. Data for tumor model L1210 Leukemia (intraperitoneal) in B6D2F1 (BDF1) mice
Details: endpoint: mean survival time, higher = longer survival
Procedure, shortened: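 Transplantable tumor model; survival measured in treated vs vehicle control mice. Value = treated/control.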

[1] = dose: 100.0 mg/kg/injection, schedule: Q01DX009 (ip), vehicle: saline
[2] = dose: 100.0 mg/kg/injection, schedule: Q04DX002 (ip), vehicle: saline with Tween-80
[3] = dose: 200.0 mg/kg/injection, schedule: Q01DX009 (ip), vehicle: saline
[4] = dose: 200.0 mg/kg/injection, schedule: Q04DX002 (ip), vehicle: saline with Tween-80
[5] = dose: 400.0 mg/kg/injection, schedule: Q01DX009 (ip), vehicle: saline
[6] = dose: 400.0 mg/kg/injection, schedule: Q04DX002 (ip), vehicle: saline with Tween-80
[7] = dose: 100.0 mg/kg/injection, schedule: Q04DX003 (ip), vehicle: saline with Tween-80
[8] = dose: 200.0 mg/kg/injection, schedule: Q04DX003 (ip), vehicle: saline with Tween-80
[9] = dose: 400.0 mg/kg/injection, schedule: Q04DX003 (ip), vehicle: saline with Tween-80
[10] = dose: 100.0 mg/kg/injection, schedule: Q04DX003 (ip), vehicle: saline
[11] = dose: 200.0 mg/kg/injection, schedule: Q04DX003 (ip), vehicle: saline
[12] = dose: 100.0 mg/kg/injection, schedule: Q01DX009 (ip), vehicle: Klucel (hydroxypropylcellulose) (HPC)
[13] = dose: 100.0 mg/kg/injection, schedule: Q04DX002 (ip), vehicle: Klucel (hydroxypropylcellulose) (HPC)
[14] = dose: 100.0 mg/kg/injection, schedule: Q04DX003 (ip), vehicle: Klucel (hydroxypropylcellulose) (HPC)
[15] = dose: 200.0 mg/kg/injection, schedule: Q01DX009 (ip), vehicle: Klucel (hydroxypropylcellulose) (HPC)
[16] = dose: 200.0 mg/kg/injection, schedule: Q04DX002 (ip), vehicle: Klucel (hydroxypropylcellulose) (HPC)
[17] = dose: 200.0 mg/kg/injection, schedule: Q04DX003 (ip), vehicle: Klucel (hydroxypropylcellulose) (HPC)
[18] = dose: 400.0 mg/kg/injection, schedule: Q01DX009 (ip), vehicle: Klucel (hydroxypropylcellulose) (HPC)
[19] = dose: 400.0 mg/kg/injection, schedule: Q04DX002 (ip), vehicle: Klucel (hydroxypropylcellulose) (HPC)
[20] = dose: 400.0 mg/kg/injection, schedule: Q04DX003 (ip), vehicle: Klucel (hydroxypropylcellulose) (HPC)
[21] = dose: 100.0 mg/kg/injection, schedule: Q01DX001 (ip), vehicle: saline
[22] = dose: 200.0 mg/kg/injection, schedule: Q01DX001 (ip), vehicle: saline
[23] = dose: 400.0 mg/kg/injection, schedule: Q01DX001 (ip), vehicle: saline
[24] = dose: 100.0 mg/kg/injection, schedule: Q01DX009 (ip), vehicle: saline with Tween-80
[25] = dose: 200.0 mg/kg/injection, schedule: Q01DX009 (ip), vehicle: saline with Tween-80
[26] = dose: 400.0 mg/kg/injection, schedule: Q01DX009 (ip), vehicle: saline with Tween-80
[27] = dose: 100.0 mg/kg/injection, schedule: Q01DX001 (ip), vehicle: Klucel (hydroxypropylcellulose) (HPC)
[28] = dose: 200.0 mg/kg/injection, schedule: Q01DX001 (ip), vehicle: Klucel (hydroxypropylcellulose) (HPC)
[29] = dose: 400.0 mg/kg/injection, schedule: Q01DX001 (ip), vehicle: Klucel (hydroxypropylcellulose) (HPC)

Measured: T/C

Cc1cc(O)ccc1CCC#N
inactive: [1] 96 % of control and 91 % of control | [2] 95 % of control and 101 % of control | [3] 104 % of control and 115 % of control | [4] 95 % of control and 96 % of control | [5] 96 % of control and 89 % of control | [6] 95 % of control and 101 % of control

CC1CC(=O)NN1C(=S)Nc1ccccc1 (stereo not drawn)
inactive: [7] 102 % of control | [8] 98 % of control | [9] 100 % of control

CC(O)C[As](=O)(O)c1cccc(Cl)c1 (stereo not drawn)
inactive: dose: 12.5 mg/kg/injection, schedule: Q01DX001 (ip), vehicle: Klucel (hydroxypropylcellulose) (HPC) 108 % of control

CC1=CC(C)(C(Cl)(Cl)Cl)C=C/C1=N\OC(C)C(=O)O (stereo not drawn)
inactive: dose: 75.0 mg/kg/injection, schedule: Q01DX001 (ip), vehicle: carboxymethylcellulose (CMC) 95 % of control | [10] 106 % of control | dose: 150.0 mg/kg/injection, schedule: Q01DX001 (ip), vehicle: carboxymethylcellulose (CMC) 106 % of control | [11] 95 % of control | dose: 400.0 mg/kg/injection, schedule: Q04DX003 (ip), vehicle: saline 97 % of control

c1ccc(C2OC2c2ccccc2)cc1 (stereo not drawn)
inactive: [12] 98 % of control | [13] 107 % of control | [14] 110 % of control | [15] 102 % of control | [16] 110 % of control | [17] 100 % of control | [18] 104 % of control | [19] 93 % of control | [20] 109 % of control

Cc1ccc([N+](=O)[O-])cc1NC(=O)NCCc1ccccc1
inactive: [12] 97 % of control | [15] 87 % of control | [18] 92 % of control

O=S(=O)(O)C(O)CC(c1ccccc1)S(=O)(=O)O (stereo not drawn)
inactive: [13] 106 % of control | [19] 98 % of control

COc1cc2ccc3c(c2cc1OC)CNCC3
inactive: dose: 50.0 mg/kg/injection, schedule: Q01DX009 (ip), vehicle: saline 104 % of control | [1] 104 % of control | [10] 116 % of control | [3] 88 % of control | [11] 102 % of control

CC(=O)Oc1cccc2ccc(/C=C/c3cccc[n+]3C)nc12
inactive: dose: 4.0 mg/kg/injection, schedule: Q01DX015 (ip), vehicle: carboxymethylcellulose (CMC) 95 % of control | dose: 8.0 mg/kg/injection, schedule: Q01DX015 (ip), vehicle: carboxymethylcellulose (CMC) 107 % of control | dose: 16.0 mg/kg/injection, schedule: Q01DX015 (ip), vehicle: carboxymethylcellulose (CMC) 97 % of control | dose: 32.0 mg/kg/injection, schedule: Q01DX015 (ip), vehicle: carboxymethylcellulose (CMC) 102 % of control

O=C(Nc1cccc(C2=NCCN2)c1)c1cccc(C(=O)Nc2cccc(C3=NCCN3)c2)c1
inactive: dose: 15.0 mg/kg/injection, schedule: Q01DX Z (ip), vehicle: carboxymethylcellulose (CMC) 103 % of control | dose: 31.0 mg/kg/injection, schedule: Q01DX Z (ip), vehicle: carboxymethylcellulose (CMC) 92 % of control | dose: 62.0 mg/kg/injection, schedule: Q01DX Z (ip), vehicle: carboxymethylcellulose (CMC) 92 % of control

CC[N+]12CC[N+](CC)(CC1)C2
inactive: [21] 103 % of control | [22] 101 % of control | [23] 91 % of control

c1ccc(C2=Nc3ccccc3C(c3ccccc3)=Nc3ccccc32)cc1
inactive: [24] 89 % of control | [25] 97 % of control | [26] 89 % of control

ClC(Cl)(Cl)c1ccn(-c2ccccc2)n1
inactive: dose: 25.0 mg/kg/injection, schedule: Q01DX001 (ip), vehicle: Klucel (hydroxypropylcellulose) (HPC) 110 % of control | dose: 50.0 mg/kg/injection, schedule: Q01DX001 (ip), vehicle: Klucel (hydroxypropylcellulose) (HPC) 100 % of control | [27] 101 % of control and 110 % of control

O=C(Nc1cc([N+](=O)[O-])ccc1O)c1ccccc1Cl
inactive: [1] 101 % of control | [3] 97 % of control | [5] 98 % of control

CC(C)=CCCC1(C)C=Cc2c(c(C)cc3c4ccccc4n(C)c23)O1 (stereo not drawn)
inactive: dose: 25.0 mg/kg/injection, schedule: Q04DX002 (ip), vehicle: DMSO 96 % of control | dose: 50.0 mg/kg/injection, schedule: Q04DX002 (ip), vehicle: DMSO 89 % of control | dose: 100.0 mg/kg/injection, schedule: Q04DX002 (ip), vehicle: DMSO 99 % of control

O=C1c2ccccc2Cc2cscc21
inactive: [7] 91 % of control | [8] 91 % of control

Cc1nc(C)c(C)s1
inactive: [12] 95 % of control | [14] 102 % of control | [15] 95 % of control | [17] 100 % of control | [18] 90 % of control | [20] 104 % of control

Cc1cc(C)nc(NCC(=O)O)n1
inactive: dose: 50.0 mg/kg/injection, schedule: Q04DX002 (ip), vehicle: saline 95 % of control | dose: 100.0 mg/kg/injection, schedule: Q04DX002 (ip), vehicle: saline 95 % of control | dose: 200.0 mg/kg/injection, schedule: Q04DX002 (ip), vehicle: saline 95 % of control

Nc1ccc(C(=O)O)cc1[N+](=O)[O-]
inactive: [13] 95 % of control | [16] 100 % of control | [19] 95 % of control

CC(C)CCOC(=O)Nc1cccc(Cl)c1
inactive: dose: 75.0 mg/kg/injection, schedule: Q01DX009 (ip), vehicle: saline with Tween-80 113 % of control | [2] 93 % of control | dose: 150.0 mg/kg/injection, schedule: Q01DX009 (ip), vehicle: saline with Tween-80 103 % of control | [4] 86 % of control | dose: 300.0 mg/kg/injection, schedule: Q01DX009 (ip), vehicle: saline with Tween-80 98 % of control | [6] 89 % of control

CSc1ccc(-c2nc3ncnc(N)c3[nH]2)cc1
inactive: dose: 25.0 mg/kg/injection, schedule: Q01DX001 (ip), vehicle: gum acacia 95 % of control | dose: 50.0 mg/kg/injection, schedule: Q01DX001 (ip), vehicle: gum acacia 93 % of control

COc1cc(CCCC(=O)O)c(OC)c(C)c1C
inactive: [27] 93 % of control | [12] 97 % of control | [28] 98 % of control | [15] 103 % of control | [29] 95 % of control | [18] 101 % of control

CNc1nc2nc[nH]c2c(=S)n1C
inactive: [21] 103 % of control | [22] 100 % of control

O=C(c1ccccc1)c1ccn[nH]1
inactive: [27] 106 % of control | [28] 103 % of control | [29] 108 % of control

CC1C[N-]CC(C)C1.CC1C[N-]CC(C)C1.[Cl][Pt+2]([Cl])([Cl])[Cl] (stereo not drawn)
inactive: dose: 12.5 mg/kg/injection, schedule: Q01DX009 (ip), vehicle: saline 107 % of control | dose: 12.5 mg/kg/injection, schedule: Q04DX003 (ip), vehicle: saline 87 % of control | dose: 25.0 mg/kg/injection, schedule: Q01DX009 (ip), vehicle: saline 102 % of control | dose: 25.0 mg/kg/injection, schedule: Q04DX003 (ip), vehicle: saline 87 % of control | dose: 50.0 mg/kg/injection, schedule: Q04DX003 (ip), vehicle: saline 95 % of control and 106 % of control | [10] 91 % of control

O=S(=O)(Nc1cc(S(=O)(=O)c2ccccc2)c(NS(=O)(=O)c2ccccc2)cc1Cl)c1ccccc1
inactive: [14] 88 % of control | [15] 92 % of control | [17] 88 % of control | [18] 87 % of control

Nn1nnc2ccccc21
inactive: [21] 95 % of control | [22] 97 % of control | [23] 97 % of control

O=c1[nH]c(=O)c2ccccc2c2ccccc12
inactive: [24] 99 % of control | [7] 102 % of control | [25] 86 % of control | [8] 107 % of control | [26] 93 % of control | [9] 102 % of control
